Literature values as cited in patent US12115139B2, “Treatment methods and processes for an infected nail” (priority 2018, dated 2024).
Values joined by “and” are separate entries in the source; they are usually repeats but may differ in a detail not shown here. Equal entries are not always repeated. Structures can show the parent of a compound that is named as a salt.

Tested on: nail infections
Settings: for side effects compared with Lamisil: oral treatment

For CC[C@@H]([C@H](C)O)n1ncn(-c2ccc(N3CCN(c4ccc(OC[C@@H]5CO[C@@](Cn6cncn6)(c6ccc(F)cc6F)C5)cc4)CC3)cc2)c1=O [Posaconazole], the “side effects compared with Lamisil” value is listed as “fewer side effects”.
In the case of CCC(C)(C)c1ccc(CC(C)CN2C[C@@H](C)O[C@@H](C)C2)cc1 (stereo partly shown) [Amorolfine, amorolfine], the “effectiveness against severe nail infections” value (topical, severe nail infections involving the nail bed) is given as “not effective”.
For C[C@@H](n1cnc2cc(Cl)ccc2c1=O)[C@](O)(Cn1cncn1)c1ccc(F)cc1F [Albaconazole], the “side effects compared with Lamisil” value is given as “fewer side effects”.
In the case of OB1OCc2cc(F)ccc21 [Tavaborole, tavaborole], the complete cure (topical, share of the 600 patients in the study) is given as 6%.
For C=C1CCN([C@H](C)[C@](O)(Cn2cncn2)c2ccc(F)cc2F)CC1 [efinaconazole], the cure rates (topical, only mild infections not involving the nail bed) is given as 17.8% and 15.2%.
For CN(C/C=C/C#CC(C)(C)C)Cc1cccc2ccccc12 [Lamisil, terbinafine hydrochloride], the mycological cure rate (oral treatment of nail infections) is given as 46%.
In the case of Cc1cc(C2CCCCC2)n(O)c(=O)c1 [Ciclopirox, ciclopirox], the cure rate (topical, 8% strength) is given as “about 8.5%”.
